Measurements published in paper PMC10033409, “Autoregulation of GPCR signalling through the third intracellular loop” (Nature, 2023).
Several values for one entry are separate records, joined by “and”; a condition that tells them apart may be missing. Identical values can stand only once. One block for each compound: values may come before it.

Columns and labels:
β2AR–mCerulean = β2AR–mCerulean (Homo sapiens, UniProt P07550, DEL236-262); conditions: ∆ICL3 β2AR–mCerulean; 10 µM biotinylated Gq peptide, 100 µM isoproterenol; single experiments 1-4
Method: Bio-Spep/Bio-Qpep (10 µM final) was added to the reaction mixture (300 µl final) and equilibrated on ice for 30 min. […] To the remaining 200 µl, 20 µl of 0.4 mg ml^−1 streptavidin-coated magnetic beads were added to the reaction mixture, equilibrated for 5 min at ambient temperature, and precipitated using a neodymium disc magnet N52 (20 × 40 mm). Fluorescence spectra was taken of the remaining supernatant in duplicate.

A1R [1] = target: T1, A1R (Homo sapiens, UniProt P30542, DEL216-222); test: cAMP accumulation, A1R; assay type: cell-based; conditions: AA1R ∆ICL3; saturating agonist concentration; 500 µM IBMX
T1 construct: expressed in transfected cells; host or cells: transfected cells (HEK 293T for the β2AR assay)
T1 sequence (P30542 with tags, fused parts or gaps DEL216-222): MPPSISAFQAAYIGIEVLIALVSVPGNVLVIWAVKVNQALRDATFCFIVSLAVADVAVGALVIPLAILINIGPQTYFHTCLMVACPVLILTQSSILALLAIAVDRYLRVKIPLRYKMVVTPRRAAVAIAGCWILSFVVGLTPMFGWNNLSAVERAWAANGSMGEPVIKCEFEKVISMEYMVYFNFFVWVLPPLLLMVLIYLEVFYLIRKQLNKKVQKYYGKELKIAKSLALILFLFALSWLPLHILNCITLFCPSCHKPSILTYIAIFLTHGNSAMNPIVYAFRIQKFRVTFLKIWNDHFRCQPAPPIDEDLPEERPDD
Method: (§1) One millilitre of medium was removed from each well containing transfected cells. The remaining volume was used to gently shear and resuspend the cells by pipetting. The cell mixture was centrifuged (3 min, 300g) and media was removed using a vacuum manifold. […] . The cells were washed once by repeating this procedure.
(§2) For all other second messenger assays, expression level and cell density of each condition was estimated through fluorescence. […] Cells were resuspended at 350,000 ± 30,000 fluorescence counts at a wavelength representing optical density of the sample (excitation 430 nm/emission 450 nm), corresponding with 2 × 10^6 ± 5 × 10^5 cells per m^l. This was confirmed by counting the cells on a haemocytometer (Countess II). The following metrics were assessed for optimal expression: mCerulean peak emission (excitation 430 nm/475 nm):optical density emission (excitation 430 nm/emission 450 nm) of 2.0 ± 0.3 and mCitrine peak emission (excitation 490 nm/emission 525 nm):mCerulean peak emission (excitation 430 nm/emission 475 nm) of 2.0 ± 0.2.
(§3) Resuspended cells were added 1:1 with a 2× concentration of ligand (10 µl final) into an opaque 384-well flat bottom plate (Greiner Bio-One). […] . for FSK inhibition assays with β-ARs, 100 µM metoprolol was used. […] Luminescence was measured on a Tecan Spark plate reader (500 ms integration, one measurement per well).

A1R [2] = target: T2, A1R (Homo sapiens, UniProt P30542); test: cAMP accumulation, A1R; assay type: cell-based; conditions: AA1R Wild-Type; saturating agonist concentration; 500 µM IBMX
T2 sequence (P30542 1-326): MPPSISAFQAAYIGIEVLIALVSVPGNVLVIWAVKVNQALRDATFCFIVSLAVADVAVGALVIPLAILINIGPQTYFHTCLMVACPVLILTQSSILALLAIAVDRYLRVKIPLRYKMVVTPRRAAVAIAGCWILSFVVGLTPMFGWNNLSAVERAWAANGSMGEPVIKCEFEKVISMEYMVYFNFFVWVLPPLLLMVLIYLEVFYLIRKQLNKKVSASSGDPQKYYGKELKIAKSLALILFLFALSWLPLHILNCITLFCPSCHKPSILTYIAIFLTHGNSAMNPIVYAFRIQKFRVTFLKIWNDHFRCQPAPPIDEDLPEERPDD
Method: as §1, §2, §3

A1R [3] = target: T1, A1R; test: InsP1 accumulation, A1R; assay type: cell-based; conditions: AA1R ∆ICL3; saturating agonist concentration
Excerpt: (§6) For all other second messenger assays, expression level and cell density of each condition was estimated through fluorescence. Fluorescence spectra for mCerulean (Horiba Fluoromax 4, excitation 430 nm, emission scan 450–600 nm, bandpass 4 nm) and mCitrine (Horiba Fluoromax 4, excitation 490 nm, emission scan 500–600 nm, bandpass 4 nm) were acquired for each condition. Cells were resuspended at 350,000 ± 30,000 fluorescence counts at a wavelength representing optical density of the sample (excitation 430 nm/emission 450 nm), corresponding with 2 × 10^6 ± 5 × 10^5 cells per m^l. […]
(§7) Resuspended cells were added 1:1 with a 2× concentration of ligand (70 µl final) into an opaque 96-well U-bottom plate (Greiner Bio-One). […] FRET ratio for each reading was calculated as the ratio of acceptor emission to donor emission. InsP1 signal for a drug and transfection combination was calculated as the average FRET ratio of a given transfection condition without drug treatment subtracted from the average FRET ratio of a of a given transfection condition with drug treatment.

A1R [4] = target: T2, A1R; test: InsP1 accumulation, A1R; assay type: cell-based; conditions: AA1R Wild-Type; saturating agonist concentration
Excerpt: as §6, §7

PTH1R–Gs peptide = test: PTH1R-luciferase complementation reporter assay, Gs peptide; assay type: biochemical, human; conditions: PTH1R construct named by the receptor or protein whose sequence replaces ICL3 (WT = wild-type); X axis of Figure 5G
PTH1R–Gq peptide = test: PTH1R-luciferase complementation reporter assay, Gq peptide; assay type: biochemical, human; conditions: PTH1R construct named by the receptor or protein whose sequence replaces ICL3 (WT = wild-type); Y axis of Figure 5G
Method: For PTH1R luciferase complementation reporter assays, cells were seeded the day prior to transfection at 25-30% confluence on 12-well plates. For each transfection, 0.5 μg DNA, 1.5 μl X-tremeGENE HP, and 100 μl Opti-MEM were combined, incubated for 15-20 min, and added to seeded wells. For each mutant, PTH1R-Gs peptide, PTH1R-Gq peptide and PTH1R-(no peptide) constructs were transfected in parallel. Spep and Qpep constructs were transfected 24 h prior to collection, and no-peptide constructs were transfected 18 h before collection. […] Media in each well was used to gently shear and resuspend the cells by pipetting. The cell mixture was centrifuged (3 min, 300g) and the media was aspirated. Cell pellet was resuspended in 1 ml PBS and centrifuged again as above. […] Cellular debris was removed by centrifugation (1,000g for 1 min). To collect additional vesicles, debris was resuspended in 0.3 ml PBS, briefly vortexed, and centrifuged again (1,000g for 1 min). The ~0.9 ml of combined decanted supernatant was centrifuged one additional time (1,000g for 2 min) to better remove cellular debris. […] Vesicle samples were collected in a 96-well clear bottom plate and assayed for TagRFP fluorescence (Tecan Spark, excitation 521 nm, emission 585 nm, gain 150). For each set of constructs for a given […] ([…] control), samples were diluted to the lowest TagRFP counts. […] The plate was tapped 2-3 times to mix, and the kinetic read was resumed. Moving averages were computed for each kinetic trace (3-point averages for 5 min equilibration, 8-point moving averages post-drug treatment). Each kinetic trace was normalized to the last point of the pre-drug equilibration. The maximum luminescence value that appeared stable over time was used for further analysis. Specific Spep and Qpep signals were calculated by subtracting the control value from the Spep value and the Qpep value for a given experiment.

β2AR L258Azi (Δ350-413) = target: T3, β2AR L258Azi (Δ350-413) (Homo sapiens, UniProt P07550, L258F); test: Time-correlated single photon counting, other sensor designs and dye-only controls (mNeonGreen/Cy3, TagRFP/AZDye488, free dyes); assay type: biochemical; conditions: Extended Data Figure 4L
T3 construct: HA; mNeonGreen, TagRFP or SNAP (differs by sensor design); expressed in transfected cells; host or cells: crude membrane extracts of transfected cells (HEK293), co-transfected with pIRE4-Azi
Method: Solution was homogenized, first by passing through a 1 ml micropipette 10 times, then passing through a 20-gauge needle 10 times. To initiate the reaction, sodium ascorbate (50 mM) was added to the mixture and mixed by pipetting (2 ml final volume). Reactions were incubated with mild shaking (500 rpm) for 30 min at 25 °C. […] For conditions without drug, peptide or nanobody, an equivalent volume of assay buffer was added. Reactions were equilibrated for 5 min prior to reading.

CB1R [5] = target: T4, CB1R (Mus musculus, UniProt P47746, DEL312-328); test: cAMP accumulation, CB1R; assay type: cell-based, murine; conditions: CB1R ∆ICL3; saturating agonist concentration; 500 µM IBMX
T4 construct: expressed in transfected cells; host or cells: transfected cells (HEK 293T for the β2AR assay)
Method: as §1, §2, §3

CB1R [6] = target: T5, CB1R (Mus musculus, UniProt P47746); test: cAMP accumulation, CB1R; assay type: cell-based, murine; conditions: CB1R Wild-Type; saturating agonist concentration; 500 µM IBMX
T5 construct: expressed in transfected cells; host or cells: transfected cells (HEK 293T for the β2AR assay)
Method: as §1, §2, §3

CB1R [7] = target: T4, CB1R; test: InsP1 accumulation, CB1R; assay type: cell-based, murine; conditions: CB1R ∆ICL3; saturating agonist concentration
Method: (§4) One millilitre of medium was removed from each well containing transfected cells. The remaining volume was used to gently shear and resuspend the cells by pipetting. The cell mixture was centrifuged (3 min, 300g) and media was removed using a vacuum manifold. […] The cells were washed once by repeating this procedure.
as §2
(§5) Resuspended cells were added 1:1 with a 2× concentration of ligand (70 µl final) into an opaque 96-well U-bottom plate (Greiner Bio-One). […] Plates were incubated at 37 °C for 2 h to stimulate InsP1 production. […] FRET ratio for each reading was calculated as the ratio of acceptor emission to donor emission. […]

CB1R [8] = target: T5, CB1R; test: InsP1 accumulation, CB1R; assay type: cell-based, murine; conditions: CB1R Wild-Type; saturating agonist concentration
Method: as §4, §2, §5

β2AR [9] = test: cAMP accumulation (cAMP-Glo), β2AR; assay type: cell-based, human; conditions: Extended Data Figure 6B
[10] = test system: β2AR–Gs peptide FRET sensor; test: ∆FRET assay, β2AR–Gs peptide SPASM FRET sensor; conditions: wild-type β2AR–Gs peptide sensor
[11] = target: β2AR–Gs peptide FRET sensor (Homo sapiens, UniProt P07550, DEL236-257); test: ∆FRET assay, β2AR–Gs peptide SPASM FRET sensor; conditions: β2AR(∆ICL3)–Gs peptide sensor
[12] = target: β2AR ICL3 FRET sensor, β2AR(L258Azi/Y350Azi/∆351–413) (Homo sapiens, UniProt P07550, L258F/Y350F); test: Time-correlated single photon counting FRET assay, β2AR ICL3 FRET sensor (AZDye488/AZDye546)
Method: Cell membranes were prepared following the procedure in ‘Crude cell membrane extracts’ through the first ultracentrifugation step (135,000g, 25 min, 4 °C). […] Solution was homogenized, first by passing through a 1 ml micropipette 10 times, then passing through a 20-gauge needle 10 times. To initiate the reaction, sodium ascorbate (50 mM) was added to the mixture and mixed by pipetting (2 ml final volume). Reactions were incubated with mild shaking (500 rpm) for 30 min at 25 °C.
For conditions without drug, peptide or nanobody, an equivalent volume of assay buffer was added. Reactions were equilibrated for 5 min prior to reading. […] Time-resolved fluorescence decay data were fit to the equation: Decay=α1e^−t/τ^1+α2e^−t/τ^2+α3e^−t/τ^3
Amplitude-weighted average lifetimes (τavg) were calculated from the three-exponential decay equation: τavg=(α1τ1+α2τ2+α3τ3)/(α1+α2+α3)
Each condition was performed in technical duplicate or triplicate, depending on sensor yield.

β2AR [13] = target: β2AR (Homo sapiens, UniProt P07550); conditions: wild-type β2AR; presence of Gq peptide
Method: (§8) Reactions were equilibrated, washed, and measured following the same procedure listed above for the radioligand antagonist-binding assay. […] Weighted averages of these IC50 values were used for comparison purposes and inhibition constant (Ki) calculations. […] Binding assays were performed in technical duplicates. Three biological replicates were collected with different membrane preparations for each replicate.

β2AR [14] = conditions: β2AR(∆ICL3); presence of Gq peptide
Method: as §8

[15] = β2AR wild-type and ICL3 alanine mutants, replicates N 1-6, some omitted from analysis
[16] = Extended Data Figure 6I, replicates 1-4

T4 sequence (P47746 with tags, fused parts or gaps DEL312-328): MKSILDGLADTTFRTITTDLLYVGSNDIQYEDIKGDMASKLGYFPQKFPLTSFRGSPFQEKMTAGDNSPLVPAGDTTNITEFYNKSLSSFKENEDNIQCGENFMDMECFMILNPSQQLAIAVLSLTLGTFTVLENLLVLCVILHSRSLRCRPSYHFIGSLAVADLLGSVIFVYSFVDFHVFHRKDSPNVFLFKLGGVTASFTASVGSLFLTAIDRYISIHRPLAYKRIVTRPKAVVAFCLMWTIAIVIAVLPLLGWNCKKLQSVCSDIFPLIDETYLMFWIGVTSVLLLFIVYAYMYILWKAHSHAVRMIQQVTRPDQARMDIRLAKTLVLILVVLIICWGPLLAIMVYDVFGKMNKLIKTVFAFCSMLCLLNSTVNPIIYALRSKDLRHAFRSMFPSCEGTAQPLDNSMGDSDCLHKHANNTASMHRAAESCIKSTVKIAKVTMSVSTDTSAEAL
T5 sequence (P47746 whole entry): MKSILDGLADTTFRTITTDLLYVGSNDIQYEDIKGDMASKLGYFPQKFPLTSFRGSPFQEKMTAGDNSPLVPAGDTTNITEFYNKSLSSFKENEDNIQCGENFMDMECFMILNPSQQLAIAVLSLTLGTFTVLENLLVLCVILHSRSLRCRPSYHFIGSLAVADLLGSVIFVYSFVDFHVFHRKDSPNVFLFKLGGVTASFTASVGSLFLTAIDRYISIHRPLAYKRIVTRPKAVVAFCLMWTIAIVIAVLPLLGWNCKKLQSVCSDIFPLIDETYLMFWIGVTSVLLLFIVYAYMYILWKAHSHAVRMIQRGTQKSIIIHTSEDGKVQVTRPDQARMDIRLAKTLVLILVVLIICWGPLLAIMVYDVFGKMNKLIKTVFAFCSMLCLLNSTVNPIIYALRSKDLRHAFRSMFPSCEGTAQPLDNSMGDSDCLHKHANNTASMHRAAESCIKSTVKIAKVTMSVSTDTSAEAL

Compound: N-Biotin-DTENIRFVFAAVKDTILQLNLKEYNLV [Bio-Qpep]
Specific mCerulean bound (β2AR–mCerulean): 0.09 and 0.14 and 0.15 and 0.12

cAMP (AU), Average (A1R [1]): 0.0561 AU
cAMP (AU), Average (A1R [2]): -0.0258 AU
IP1 (AU), Average (A1R [3]): 0.0652 AU
IP1 (AU), Average (A1R [4]): 0.15 AU
Compound: OC[C@H]1O[C@@H](n2cnc3c(NC4CCCC4)ncnc32)[C@H](O)[C@@H]1O [N^6-cyclopentyladenosine]

Specific Peptide Signal, Gs (Average) (PTH1R–Gs peptide): 0.48
Specific Peptide Signal, Gq (Average) (PTH1R–Gq peptide): 0.14
Compound: NTS1

Compound: CNR2
Specific Peptide Signal, Gs (Average) (PTH1R–Gs peptide): 0.55
Specific Peptide Signal, Gq (Average) (PTH1R–Gq peptide): 0.16

Specific Peptide Signal, Gs (Average) (PTH1R–Gs peptide): 0.79
Specific Peptide Signal, Gq (Average) (PTH1R–Gq peptide): 0.14
Compound: GPR27

Compound: Humanin
Specific Peptide Signal, Gs (Average) (PTH1R–Gs peptide): 0.41

Compound: 5HT2A
Specific Peptide Signal, Gs (Average) (PTH1R–Gs peptide): 0.37
Specific Peptide Signal, Gq (Average) (PTH1R–Gq peptide): 0.0157

Fluorescence lifetime, Labeled Receptor, individual replicates 1-3 (β2AR L258Azi (Δ350-413)): 2.34 and 2.19 and 2.32
Fluorescence lifetime, Labeled Receptor, Average (β2AR L258Azi (Δ350-413); average of 3): 2.28
Compound: Oregon Green

Specific Peptide Signal, Gs (Average) (PTH1R–Gs peptide): 0.24
Specific Peptide Signal, Gq (Average) (PTH1R–Gq peptide): -0.15
Compound: 5HT1D

Specific Peptide Signal, Gs (Average) (PTH1R–Gs peptide): 0.39
Compound: Gamma-synuclein

Specific Peptide Signal, Gs (Average) (PTH1R–Gs peptide): 0.66
Specific Peptide Signal, Gq (Average) (PTH1R–Gq peptide): -0.09
Compound: HRH1

Compound: CCCCC/C=C\C/C=C\C/C=C\C/C=C\CCCC(=O)OC(CO)CO [2-Arachidonoylglycerol]
cAMP (AU), Average (CB1R [5]): 0.16 AU
cAMP (AU), Average (CB1R [6]): 0.05 AU
IP1 (AU), Average (CB1R [7]): 0.27 AU
IP1 (AU), Average (CB1R [8]): 0.14 AU

Compound: HVQ-AAA
cAMP (Relative to Wild-Type Average) (β2AR [9]; Average): 1.18
cAMP (Relative to Wild-Type Average) (β2AR [9]; [15]): 0.92 and 1.04 and 1.40 and 1.30 and 1.16 and 1.28

Compound: DTENIRFVFAAVKDTILQLNLKEYNLV [Gq peptide]
effect on FRET of β2AR–Gs peptide sensor [10]: enhanced FRET
effect on FRET of β2AR–Gs peptide sensor [11]: did not enhance FRET
Donor-only sample (tau donor) Lifetime (ns) [12, 16]: 2.34 ns and 2.38 ns and 2.28 ns and 2.27 ns
FRET sample (tau FRET) Lifetime (ns) [12, 16]: 2.42 ns (2×) and 2.32 ns and 2.40 ns
effect on FRET of the ICL3 FRET sensor ([12]; Gq peptide alone): increased FRET to a similar level to the agonist alone
effect on FRET of the ICL3 FRET sensor ([12]; combination of agonist and Gq peptide): decreased FRET
effect on agonist binding affinity (β2AR [13]): increased agonist binding affinity
effect on agonist binding affinity (β2AR [14]): this effect was lost

Compound: QDG-AAA
cAMP (Relative to Wild-Type Average) (β2AR [9]; Average): 1.60
cAMP (Relative to Wild-Type Average) (β2AR [9]; [15]): 1.35 and 1.62 and 1.56 and 1.90 and 1.60 and 1.57

Specific Peptide Signal, Gs (Average) (PTH1R–Gs peptide): 0.47
Specific Peptide Signal, Gq (Average) (PTH1R–Gq peptide): 0.0635
Compound: ADRB1
